The subject of assay [1] is epitope peptide. Briefly: Antibody titer (GMT) of serum of mice administered AJP001 conjugated peptide, ELISA. As to conditions: BALB/c mice, no adjuvant; for antibody titer (GMT) over time: 1 mg/body intradermal 3 times at two-week intervals, blood every 2 weeks until 8 weeks. The class given is in vivo, mouse. The method, then:
AJP001 conjugated peptide having one of the B cell epitope sequences of SEQ ID NOs: 1-5 was dissolved in physiological saline and intradermally administered twice to BALB/c mice (female, 6-week-old, N=5-6) at 0.5 mg/body at 2-week intervals. Blood was collected before administration and 5 weeks after the initial administration, and the antibody titer against each AJP001 conjugated peptide and the binding ability to recombinant mouse IL-23 protein (rmIL-23) were measured by the ELISA method. Specifically, a 96-well plate immobilized with an epitope peptide dissolved at 10 μg/mL in carbonate buffer was blocked with 5% skim milk/PBS, and then serum serially diluted with 5% skim milk/PBS was added, and the mixture was left standing at 4° C. overnight. After washing the wells with PBS-T, HRP-labeled anti-mouse IgG antibody (GE Healthcare) diluted with 5% skim milk/PBS was added and the mixture was shaken at room temperature for 3 hr. After washing the wells with PBS-T, TMB solution (SIGMA) was added, the wells were allowed to stand for 30 min in the dark, the reaction was stopped by adding 0.5M H2SO4, and the absorbance at 450 nm was measured using a plate reader. The serum dilution rate that gave 1/2 (OD=1.75) of the maximum absorbance was defined as the antibody titer, and the geometric mean titer: GMT was calculated from the individual values. Binding to IL-23 protein was measured by the ELISA method in the same manner as the antibody titer, using rmIL-23 (Antibodies-online GmbH) as the solid-phased antigen and goat serum for blocking.
AJP001 conjugated peptide (SEQ ID NO: 2) was dissolved in physiological saline and intradermally administered to BALB/c mice (female, 6-week-old, N=6) at 1 mg/body 3 times at two-week intervals, and blood was collected every 2 weeks until 8 weeks. The antibody titer (GMT) of all the collected sera and the binding ability to rmIL-23 of the serum at the time point of 6 weeks were measured by the ELISA method (same method as in Example 1). The antibody titer and the binding of the induced antibody to rmIL-23 at each time point are shown in FIGS. 2 (a) and (b), respectively.
AJP001 conjugated peptide (SEQ ID NOs: 6-37) was dissolved in physiological saline, mixed with an equal amount of 2% Alhydrogel (invivogen), and this was intradermally administered to BALB/c mice (female, 6-week-old, N=5-6) at 0.5 mg/body 3 times at two-week intervals. Blood was collected before administration and at the time point of 6 weeks after initial administration, and the antibody titer (GMT) to each epitope sequence and binding ability to recombinant human IL-23 protein (rhIL-23) (Peprotech) were measured by the ELISA method (same method as in Example 1). The binding to rhIL-23 was evaluated by a binding ratio to normal serum by calculating the ratio of the absorbance of a well added with normal mouse serum to the absorbance of a well added with antiserum derived from a mouse administered with each AJP001 conjugated peptide (SEQ ID NOs: 6-37). In addition, the neutralization activity of mouse antiserum was evaluated using an action on IL-17 production in rhIL-23 stimulated mouse splenocyte as an index. The spleen of normal BALB/c mouse (female, 5-week-old, N=3) was triturated using a syringe barrel and a cell strainer and washed with and suspended in HBSS (−). Erythrocytes were then removed using ACK Buffer (Thermo fisher scientific), and splenocytes were isolated. The splenocytes were prepared to 2.5×10^6 cells/mL with 10% FBS/1% penicillin/streptomycin/4 ng/mL rmIL-2-containing RPMI1640 medium (culture medium), and seeded in a 96 well plate at 100 μl/well. The antiserum (final concentration 15-fold) of the mice administered with each AJP001 conjugated peptide and rhIL-23 (final concentration 10 ng/ml) were added to the culture medium, reacted at 37° C. for 2 hr, added at 100 μL/well to a 96-well plate seeded with splenocytes, and cultured for 3 days in a 37° C./5% CO2 incubator. […]

Assay [2] has as its system splenocytes. The experiment in a line: ELISPOT assay for T cell activation (IFN-γ, IL-4) in splenocytes of administered mice. The class given is cell-based, mouse. As to conditions: splenocytes 7 weeks after first administration, stimulated with 10 μg/mL AJP001 alone or 10 μg/mL AJP001 conjugated peptide. On the procedure:
In addition, ELISPOT assay was performed to evaluate T cell activation. AJP001 conjugated peptide (SEQ ID NO: 2) or physiological saline was administered three times at two-week intervals to BALB/c mice (female, 6-week-old, N=3-4), and the spleen was collected 7 weeks after the first administration. The collected spleen was triturated using a syringe barrel and a cell strainer. This was washed with and suspended in HBSS (−), erythrocytes were removed using ACK Buffer (Thermo fisher scientific), and splenocytes were isolated. Using Mouse IFN-γ ELISpot assay kit and Mouse IL-4 ELISpot assay kit (R&D systems), the cells were prepared to 2.5×10^6 cells/mL with 10% FBS/1% penicillin/streptomycin/4 ng/mL rmIL-2-containing RPMI1640 medium (culture medium), and seeded at 100 μL/well on the 96-well plate of which each capture antibody was immobilized. Splenocytes were stimulated by adding (1) medium alone, (2) 10 μg/mL T cell antigen AJP001 (SEQ ID NO: 38) alone, (3) 10 μg/mL AJP001 conjugated peptide (SEQ ID NO: 2), or (4) 100 ng/mL PMA/ionomycin (PMA/IM, Sigma) to each well. Stimulation was performed for 2 days in a […]. Then, a detection antibody was added and, after washing, a colorimetric reaction was performed. The stained cells were measured with a microscope. The number of IFN-γ and IL-4 positive cells was calculated as the number of cells per 10^6 cell number (SFC/10^6 cells). In FIG. 2, “*” means significant (P<0.05).
In addition, AJP001 conjugated peptide (SEQ ID NO: 6) or physiological saline was administered three times at two-week intervals to BALB/c mouse (female, 6-week-old, N=3-4), and the spleen was collected 7 weeks after the first administration. The collected spleen was subjected to ELISPOT assay using Mouse IFN-γ ELISpot assay kit and Mouse IL-4 ELISpot assay kit (R&D systems).

The subject of assay [3] is rhIL-23. Briefly: Binding of monkey antiserum to rhIL-23, ELISA. Also on record: species or system human. As to conditions: monkey antiserum 6 weeks after the initial administration. The method, then:
AJP001 conjugated peptide (SEQ ID NO: 6) was dissolved in physiological saline and subcutaneously administered to Macaca fascicularis (female, […], N=4) at 5 mg/body 3 times at two-week intervals. Blood was collected every two weeks from the first day of administration until week 16, and the antibody titer (GMT) and binding to IL-23 of the serum at each time point were measured by the ELISA method (same method as in Example 1; the secondary antibody used was Anti-Monkey IgG (Abcam)). In FIG. 7, “*” means P<0.05.

Two substances from patent US20250057928A1, “VACCINE COMPOSITION FOR INDUCING ANTI-IL-23 ANTIBODY” (OSAKA UNIVERSITY, priority 2021, published 2025) can be followed below.

Where no end group is shown, it is not given here.

For “SEQ ID NO 6: AJP001-Ahx-B cell epitope peptide conjugate; epitope SPSQPWQR (human 151-158) (not fully specified (N-terminus); listed as Homo sapiens)”, the “antibody titer (GMT) over time” value in assay [1] is “increased from the 2nd week and persisted until the 8th week”. In assay [2], the “number of IFN-γ positive cells” value is recorded as “increase” and the “number of IL-4 positive cells” value is reported as “increase”. Also, the “binding ability to rhIL-23” value in assay [3] is “showed binding ability”.

Take “SEQ ID NO 2: AJP001-Ahx-B cell epitope peptide conjugate; epitope SSSQQWQR (mouse 152-159) (not fully specified (N-terminus); listed as Mus musculus)”: the antibody titer result in assay [1] (0.5 mg/body intradermal twice at 2-week intervals, 5 weeks after initial administration) is given as “significant increase”. Also, the “antibody titer (GMT) over time” value in assay [1] is “increased from the 2nd week and persisted until the 8th week”. Also, in assay [2], the “number of IFN-γ positive cells” value is listed as “increase” and the “number of IL-4 positive cells” value is “increase”.
